Data: PubChem BioAssay (NCI)
“And” between values parts separate entries of the source, which are not always exact repeats. Equal values may be shown once.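 Results reflect a 48-hour exposure of cells in 96-well plates to compound at five concentrations. GI50 marks 50% less growth. TGI is the concentration that stops growth completely.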

Tests used:
Assay in all cases: inhibition of tumour cell growth, NCI panel, 48 h
SN12C renal = test system: SN12C renal
HT29 colon = test system: HT29 colon
OVCAR-4 ovarian = test system: OVCAR-4 ovarian
COLO 205 colon = test system: COLO 205 colon
HCT-116 colon = test system: HCT-116 colon
MOLT-4 leukemia = test system: MOLT-4 leukemia
SK-MEL-5 melanoma = test system: SK-MEL-5 melanoma
EKVX NSCLC = test system: EKVX NSCLC
K-562 leukemia = test system: K-562 leukemia
UACC-257 melanoma = test system: UACC-257 melanoma

| Structure (SMILES) | TGI (SN12C renal) | TGI (HT29 colon) | TGI (OVCAR-4 ovarian) | TGI (COLO 205 colon) | TGI (HCT-116 colon) | TGI (MOLT-4 leukemia) | TGI (SK-MEL-5 melanoma) | TGI (EKVX NSCLC) | TGI (K-562 leukemia) | TGI (UACC-257 melanoma) | GI50 (OVCAR-4 ovarian) | GI50 (COLO 205 colon) | GI50 (HCT-116 colon) | GI50 (MOLT-4 leukemia) | GI50 (SK-MEL-5 melanoma) | GI50 (EKVX NSCLC) | GI50 (K-562 leukemia) | GI50 (UACC-257 melanoma) | GI50 (SN12C renal) | GI50 (HT29 colon) |
| --- | --- | --- | --- | --- | --- | --- | --- | --- | --- | --- | --- | --- | --- | --- | --- | --- | --- | --- | --- | --- |
| O=C1NC(=Nc2ccccc2Cl)SC1C(=O)Nc1ccc([N+](=O)[O-])cc1[N+](=O)[O-] (stereo unspecified) | > 100 µM | > 100 µM | > 100 µM | > 100 µM | > 100 µM | > 100 µM | > 100 µM | > 100 µM | > 100 µM | > 100 µM |  |  |  |  |  |  |  |  |  |  |
| CCCCCCCC(=O)O[C@H]1[C@H]2[C@@H](CC1(C)C)C(=O)[C@]13O[C@H]1C(=O)[C@]1(CO1)[C@]23C | 12.6 µM and 9.31 µM | 14.4 µM and 14.9 µM | 9.2 µM and 9.85 µM | 5.18 µM and 4.07 µM | 12.4 µM and 3.8 µM | 10.9 µM and 2.68 µM | 29.9 µM and 10.5 µM | 62.1 µM and 10 µM | 5.13 µM and 5.3 µM | 10.8 µM and 7.04 µM | 2.83 µM | 2170 nM | 3070 nM and 1630 nM | 1170 nM | 15300 nM | 36.9 µM | 1520 nM | 5.03 µM |  |  |
| CN(C)CC1CCCCCCCCCCC1=O (stereo unspecified) | > 100 µM | > 100 µM | > 100 µM | > 100 µM | > 100 µM | > 100 µM | > 100 µM | > 100 µM | > 100 µM | > 10 µM | > 100 µM | > 100000 nM | > 100000 nM | > 100000 nM |  | > 100 µM | > 100000 nM |  | > 100000 nM | > 10000 nM and 98400 nM |
| Cc1cccc(Cc2cnc(NC(=O)/C=C/c3ccco3)s2)c1 | > 100 µM | > 100 µM | > 100 µM | 1.23 µM | > 100 µM | > 100 µM | 3.36 µM | > 100 µM | > 100 µM | > 100 µM | 1.59 µM | 43.8 nM | 42.5 nM | 56.1 nM | 35.4 nM | 0.0581 µM | 34.7 nM | > 100 µM | 73 nM | 37.3 nM |
| N#CCCCCCn1c2ccccc2c2c3c(c4c5ccccc5[nH]c4c21)C(=O)N(O)C3=O | 4.92 µM | 4.66 µM | 13 µM | 4.36 µM | 2.37 µM | 4.33 µM | 1.5 µM | 5.63 µM | > 100 µM | 5.45 µM | 1.9 µM | 1850 nM | 894 nM | 370 nM | 403 nM | 1.77 µM | 1070 nM | 1.95 µM | 1290 nM | 1860 nM |
| N#CSc1cc(-c2nc3ccccc3o2)ccc1N | 43.1 µM | > 100 µM | > 100 µM | > 100 µM | > 100 µM | 22.1 µM | 29.2 µM | 37.2 µM | > 89.3 µM | 26.4 µM | 30.5 µM | 40500 nM | 26500 nM | 4090 nM | 11100 nM | 5 µM | 2550 nM | 1.77 µM | 15800 nM | 37700 nM |
| CC1(C)CC(=O)C=C(NC(=O)c2ccccc2)C1 | > 100 µM | > 100 µM | > 100 µM | > 100 µM | > 100 µM | > 100 µM | > 100 µM | > 100 µM | > 100 µM | > 100 µM |  |  |  |  |  |  |  |  |  |  |
| BrCC[N+]12CCCN1CCC2 | 29.3 µM | 38.2 µM | 10.7 µM | 10.5 µM | 22.8 µM | 12.9 µM | 34.3 µM | 38 µM | 8.46 µM | 37.2 µM |  |  |  |  |  |  |  |  |  |  |
| Cc1cccc2c1C(=O)OC2(c1cccc2ccccc12)c1cccc2ccccc12 | > 100 µM | > 100 µM | > 100 µM | > 100 µM | > 100 µM | > 100 µM | > 100 µM | > 100 µM | > 100 µM | > 100 µM |  |  |  |  |  |  |  |  |  |  |
| O=C(Nc1ccc(Oc2cccc(Cl)c2)c(Cl)c1)c1cccnc1 | > 50 µM | 6.42 µM | > 50 µM | 8.1 µM | > 50 µM | > 50 µM | 6.92 µM | > 50 µM | > 50 µM | 27 µM | 14.5 µM | 1390 nM | 2110 nM | 2860 nM | 1780 nM | 3.62 µM | 255 nM | 5.1 µM | 3740 nM | 823 nM |
| COc1cc(C2CC(c3cc(Cl)c(C)cc3O)=NN2c2ccc(S(N)(=O)=O)cc2)cc(OC)c1OC (stereo unspecified) | 10.3 µM | 4.28 µM | > 100 µM | 3.09 µM | 2.98 µM | > 100 µM | 4.18 µM | 43.7 µM | 30.9 µM | 15.2 µM | 3.47 µM | 1720 nM | 1630 nM | 4460 nM | 2020 nM | 3.26 µM | 3220 nM | 4.13 µM | 2970 nM | 1920 nM |
